Test results: patent publication US20110178104A1, “Anti-Heparin Compounds” (POLYMEDIX INC., priority 2010, published 2011)
Read-outs that look alike come from different tables or passages of the source.

Experiments:
[1] = test system: enoxaparin; assay: FXa amidolytic assay (Example 10), enoxaparin; settings: read-out: Enox FXa EC50; enoxaparin 0.1 ug/ml; human antithrombin, bovine Factor Xa
Experimental: (§1) Two μl of test agent are added (range between 0.01 and 23 ug/ml) and incubated for 5 minutes at 23° C. Bovine Factor Xa was added to a final concentration of 0.636 nkat/mL and incubated for a further 10 minutes at 23° C.

[2] = test system: isolated human erythrocytes; assay: in vitro; assay type: cell-based; settings: human RBC, 1 hour at 37° C.
Experimental: Hemolysis assay: Cytotoxicity was also evaluated in a hemolysis assay using isolated human erythrocytes. Pooled whole human blood was centrifuged to separate the red blood cells (RBC). The isolated RBCs were rinsed and diluted in Tris-buffered saline (TBS buffer, pH 7.4) to obtain a 0.22% RBC stock suspension. Serial two-fold dilutions of test agent were assayed over a concentration range of 1000 to 0.48 μg/ml with shaking for 1 hour at 37° C. At the conclusion of the incubation time, samples were centrifuged and 30 μl of the supernatant was added to 100 μl H2O. OD405 measurements were read for hemoglobin concentration. The bee venom peptide melittin was used as a positive control. EC50 values were determined using a four parameter logistic equation: Y=Bottom+(Top-Bottom)/(1+10̂((LogEC50-X)*HillSlope)).

[3] = test system: tinzaparin; assay: FXa amidolytic assay (Example 10), tinzaparin; settings: read-out: Tinzap FXa EC50; tinzaparin 0.1 ug/ml; human antithrombin, bovine Factor Xa
Experimental: as §1

[4] = test system: fondaparinux; assay: FXa amidolytic assay (Example 10), fondaparinux; settings: read-out: Fondap FXa EC50; fondaparinux 0.02 μg/mL; human antithrombin, bovine Factor Xa
Experimental: as §1

[5] = test system: Unfractionated heparin; assay: aPTT clotting assay, UFH 0.4 U/mL in plasma (Example 10); assay type: biochemical; settings: unfractionated heparin 0.4 U/mL in plasma; aPTT clotting
Experimental: aPTT clotting Assay: Unfractionated heparin was mixed with plasma at a final concentration of 0.4 U/mL (or concentration which increases aPTT time to between 120 and 300 seconds). […] The ACL Elite Hemostasis analyzer (Beckman Coulter™) was used to add aPTT reagent (HemosIL SynthASil) to supplemented plasma. Clotting was initiated by addition of CaCl2 and time to clot was recorded.

[6] = test system: fondaparinux (FONDAPX); assay: FXa chromogenic assay (absence of plasma), fondaparinux
[7] = test system: unfractionated heparin (UFH); assay: aPTT clotting assay, UFH 0.2 U/mL in plasma (Example 7); assay type: biochemical
Experimental: aPTT clotting Assay. Unfractionated heparin was mixed with plasma at a final concentration of 0.2 U/mL. […] The ACL Elite Hemostasis analyzer (Beckman Coulter™) was used to add aPTT reagent (HemosIL SynthASil) to supplemented plasma. Clotting was initiated by addition of CaCl2 and time to clot was recorded.

[8] = test system: enoxaparin (ENOX); assay: FXa chromogenic assay (absence of plasma), enoxaparin
[9] = fondaparinux 0.02 μg/mL, absence of plasma
[10] = enoxaparin 0.1 μg/mL, absence of plasma

Compound: COc1ccc(NC(=O)[C@H](CCCNC(=N)N)NC(=O)c2cc(NC(=O)[C@H](CCCNC(=N)N)NC(=O)c3cc(NC(=O)[C@H](CCCNC(=N)N)NC(=O)c4cc(NC(=O)[C@@H](N)CCCNC(=N)N)ccc4OC)ccc3OCC(=O)O)ccc2OC)cc1C(N)=O [Compound 288]
- EC50 [1]: 119 nM
- Hemolysis EC50 [2]: no significant decrease
- EC50 [3]: 102 nM
- EC50 [4]: 390 nM
- EC50 [5]: 2020 nM

Compound: COc1ccc(NC(=O)[C@@H](CCCNC(=N)N)NC(=O)c2cc(NC(=O)[C@@H](CCCNC(=N)N)NC(=O)c3cc(NC(=O)[C@@H](CCC(=O)O)NC(=O)c4cc(NC(=O)[C@H](N)CCCNC(=N)N)ccc4OC)ccc3OC)ccc2OC)cc1C(N)=O [Compound 321]
- EC50 [1]: 441 nM
- EC50 ([2]; Homo sapiens, Erythrocyte, 1 h, read-out: Hemolysis EC50): > 1000 µg/mL
- EC50 [3]: 225 nM
- EC50 [4]: 2690 nM
- EC50 [5]: 1820 nM

Compound: COc1ccc(NC(=O)[C@H](CCCCN)NC(=O)c2cc(NC(=O)[C@@H](N)CCCCN)ccc2OC)cc1C(=O)N[C@@H](CCCCN)C(=O)Nc1ccc(OC)c(C(=O)N[C@@H](CCCCN)C(=O)Nc2ccc(OC)c(C(=O)N[C@H](C(=O)O)C(C)C)c2)c1 [Compound 114]
- FONDAPX (FXa) EC50 [6, 9]: 12.56 µg/mL
- UFH (aPTT) EC50 ([7]; UFH 0.2 U/mL in plasma): 3.00 µg/mL
- ENOX (FXa) EC50 [8, 10]: 0.9758 µg/mL

Compound: COc1ccc(NC(=O)[C@@H](CCCN)NC(=O)c2cc(NC(=O)[C@@H](CCCNC(=N)N)NC(=O)c3cc(NC(=O)[C@@H](CCCN)NC(=O)c4cc(NC(=O)[C@H](N)CCCNC(=N)N)ccc4OC)ccc3OC)ccc2OC)cc1C(N)=O [Compound 39]
- FONDAPX (FXa) EC50 [6]: 17.09 µg/mL
- UFH (aPTT) EC50 [7]: 3.07 µg/mL
- ENOX (FXa) EC50 [8]: 1.11 µg/mL

Compound: COc1ccc(NC(=O)[C@@H](CCCNC(=N)N)NC(=O)c2cc(NC(=O)[C@@H](CCCNC(=N)N)NC(=O)c3cc(NC(=O)[C@H](N)CCCNC(=N)N)ccc3OC)ccc2OC)cc1C(=O)N[C@H](CCCNC(=N)N)C(N)=O [Compound 42]
- FONDAPX (FXa) EC50 [6, 9]: 70.66 µg/mL
- UFH (aPTT) EC50 ([7]; UFH 0.2 U/mL in plasma): 2.34 µg/mL
- ENOX (FXa) EC50 [8, 10]: 4.07 µg/mL

Compound: COc1ccc(NC(=O)[C@@H](CCCNC(=N)N)NC(=O)c2cc(NC(=O)[C@@H](CCCNC(=N)N)NC(=O)c3cc(NC(=O)[C@@H](CCCNC(=N)N)NC(=O)c4cc(NC(=O)[C@@H](CCCNC(=N)N)NC(=O)CCCCNC(=N)N)ccc4OC)ccc3OC)ccc2OC)cc1C(N)=O [Compound 38]
- FONDAPX (FXa) EC50 [6, 9]: 1.94 µg/mL
- UFH (aPTT) EC50 ([7]; UFH 0.2 U/mL in plasma): 2.37 µg/mL
- ENOX (FXa) EC50 [8, 10]: 0.18 µg/mL

Compound: COc1cc(OC)c(C(=O)N[C@H]2CC[C@H](NC(=O)c3cc(C(=O)NCCN(C)C)c(OCCCCCNC(=N)N)cc3OCCCCCNC(=N)N)CC2)cc1C(=O)N[C@H]1CC[C@@H](NC(=O)c2cc(C(=O)NCCN(C)C)c(OCCCCCNC(=N)N)cc2OCCCCCNC(=N)N)CC1 [Compound 104]
- FONDAPX (FXa) EC50 [6, 9]: 2.02 µg/mL
- UFH (aPTT) EC50 ([7]; UFH 0.2 U/mL in plasma): >10 µg/mL
- ENOX (FXa) EC50 [8, 10]: 0.36 µg/mL

Compound: COc1ccc(NC(=O)[C@@H](CCCNC(=N)N)NC(=O)c2cc(NC(=O)[C@@H](CCCNC(=N)N)NC(=O)c3cc(NC(=O)[C@@H](CCCNC(=N)N)NC(=O)c4cc(NC(=O)[C@H](N)Cc5c[nH]c6ccccc56)ccc4OC)ccc3OC)ccc2OC)cc1C(N)=O [Compound 71]
- FONDAPX (FXa) EC50 [6, 9]: 0.86 µg/mL
- UFH (aPTT) EC50 ([7]; UFH 0.2 U/mL in plasma): 2.58 µg/mL
- ENOX (FXa) EC50 [8, 10]: 0.87 µg/mL

Compound: COc1ccc(NC(=O)[C@@H](CCCNC(=N)N)NC(=O)c2cc(NC(=O)[C@@H](CCCNC(=N)N)NC(=O)c3cc(NC(=O)[C@H](CCCNC(N)=O)NC(=O)c4cc(NC(=O)[C@H](N)CCCNC(=N)N)ccc4OC)ccc3OC)ccc2OC)cc1C(N)=O [Compound 83]
- FONDAPX (FXa) EC50 [6, 9]: 14.79 µg/mL
- UFH (aPTT) EC50 ([7]; UFH 0.2 U/mL in plasma): 4.73 µg/mL
- ENOX (FXa) EC50 [8, 10]: 1.02 µg/mL

Compound: COc1ccc(NC(=O)[C@H](CCCCN)NC(=O)c2cc(NC(=O)[C@H](CCCCN)NC(=O)c3cc(NC(=O)[C@H](CCCCN)NC(=O)c4cc(C(=O)NCCCCCN)c(OC)cc4OC)ccc3OC)ccc2OC)cc1C(N)=O [Compound 102]
- FONDAPX (FXa) EC50 [6, 9]: 2.938 µg/mL
- UFH (aPTT) EC50 ([7]; UFH 0.2 U/mL in plasma): 3.32 µg/mL
- ENOX (FXa) EC50 [8, 10]: 0.3328 µg/mL

Compound: COc1ccc(NC(=O)[C@H](CCCCN)NC(=O)c2cc(NC(=O)[C@H](CCCCN)NC(=O)c3cc(NC(=O)[C@H](CCCCN)NC(=O)c4cc(NC(=O)[C@@H](N)CCCCN)ccc4OC)ccc3OC)ccc2OC)cc1C(=O)O [Compound 96]
- FONDAPX (FXa) EC50 [6, 9]: inactive
- UFH (aPTT) EC50 ([7]; UFH 0.2 U/mL in plasma): 3.59 µg/mL
- ENOX (FXa) EC50 [8, 10]: 5.567 µg/mL

Compound: COc1ccc(NC(=O)[C@H](CCCCN)NC(=O)c2cc(NC(=O)[C@H](CCCCN)NC(=O)c3cc(NC(=O)[C@H](CCCCN)NC(=O)c4cc(NC(=O)[C@@H](N)CCCCN)ccc4OC)ccc3OC)ccc2OC)cc1C(=O)N[C@@H](C)C(=O)O [Compound 109]
- FONDAPX (FXa) EC50 [6, 9]: 9.853 µg/mL
- UFH (aPTT) EC50 ([7]; UFH 0.2 U/mL in plasma): 2.23 µg/mL
- ENOX (FXa) EC50 [8, 10]: 0.6089 µg/mL

Compound: COc1ccc(NC(=O)[C@H](CCCNC(=N)N)NC(=O)c2cc(NC(=O)[C@H](CCCCN)NC(=O)c3cc(NC(=O)[C@H](CCCCN)NC(=O)c4cc(NC(=O)[C@@H](N)CCCCN)ccc4OC)ccc3OC)ccc2OC)cc1C(N)=O [Compound 78]
- FONDAPX (FXa) EC50 [6, 9]: 6.28 µg/mL
- UFH (aPTT) EC50 ([7]; UFH 0.2 U/mL in plasma): 2.99 µg/mL
- ENOX (FXa) EC50 [8, 10]: 0.49 µg/mL

Compound: [2H]C([2H])(CN)C([2H])([2H])C[C@H](N)C(=O)Nc1ccc(OC)c(C(=O)N[C@@H](CCCCN)C(=O)Nc2ccc(OC)c(C(=O)N[C@@H](CCCCN)C(=O)Nc3ccc(OC)c(C(=O)N[C@@H](CCCCN)C(=O)Nc4ccc(OC)c(C(N)=O)c4)c3)c2)c1 [Compound 121]
- FONDAPX (FXa) EC50 [6, 9]: 8.293 µg/mL
- UFH (aPTT) EC50 ([7]; UFH 0.2 U/mL in plasma): 7.48 µg/mL
- ENOX (FXa) EC50 [8, 10]: 0.4289 µg/mL

Compound: COc1ccc(NC(=O)[C@H](CCCCN)NC(=O)c2cc(NC(=O)[C@@H](N)CCCCN)ccc2OC)cc1C(=O)N[C@@H](CCCCN)C(=O)Nc1ccc(SC)c(C(=O)N[C@@H](CCCCN)C(=O)Nc2ccc(SC)c(C(N)=O)c2)c1 [Compound 141]
- FONDAPX (FXa) EC50 [6, 9]: inactive
- UFH (aPTT) EC50 ([7]; UFH 0.2 U/mL in plasma): inactive
- ENOX (FXa) EC50 [8, 10]: inactive

Compound: COc1ccc(NC(=O)[C@@H](CCCCN)NC(=O)c2cc(NC(=O)[C@@H](CCCNC(=N)N)NC(=O)c3cc(NC(=O)[C@@H](CCCCN)NC(=O)c4cc(NC(=O)[C@H](N)CCCNC(=N)N)ccc4OC)ccc3OC)ccc2OC)cc1C(N)=O [Compound 43]
- FONDAPX (FXa) EC50 [6, 9]: 4.44 µg/mL
- UFH (aPTT) EC50 ([7]; UFH 0.2 U/mL in plasma): 2.33 µg/mL
- ENOX (FXa) EC50 [8, 10]: 0.36 µg/mL

Compound: COc1ccc(NC(=O)[C@H](CCCCN)NC(=O)c2cc(NC(=O)[C@H](C)NC(=O)c3cc(NC(=O)[C@H](CCCCN)NC(=O)c4cc(NC(=O)[C@@H](N)CCCCN)ccc4OC)ccc3OC)ccc2OC)cc1C(N)=O [Compound 76]
- FONDAPX (FXa) EC50 [6, 9]: 10.50 µg/mL
- UFH (aPTT) EC50 ([7]; UFH 0.2 U/mL in plasma): 6.00 µg/mL
- ENOX (FXa) EC50 [8, 10]: 1.49 µg/mL

Compound: N=C(N)NCCC[C@@H](N)C(=O)Nc1ccc(OCCNC(=N)N)c(C(=O)N[C@H](CCCNC(=N)N)C(=O)Nc2ccc(OCCNC(=N)N)c(C(=O)N[C@H](CCCNC(=N)N)C(=O)Nc3ccc(OCCNC(=N)N)c(C(N)=O)c3)c2)c1 [Compound 9]
- FONDAPX (FXa) EC50 [6, 9]: 40.16 µg/mL
- UFH (aPTT) EC50 ([7]; UFH 0.2 U/mL in plasma): 5.35 µg/mL
- ENOX (FXa) EC50 [8, 10]: 2.90 µg/mL

Compound: N=C(N)NCCCCC(=O)Nc1cc(C(F)(F)F)cc(NC(=O)c2cc(C(=O)Nc3cc(C(F)(F)F)cc(NC(=O)CCCCNC(=N)N)c3SCCN)ncn2)c1SCCN [Compound 6]
- FONDAPX (FXa) EC50 [6, 9]: inactive
- UFH (aPTT) EC50 ([7]; UFH 0.2 U/mL in plasma): 29.11 µg/mL
- ENOX (FXa) EC50 [8, 10]: 0.57 µg/mL
